Assay results from ChEMBL document CHEMBL1201862, “PubChem BioAssay data set” (2004).
Activity calls are given as the source filed them.

How the values were obtained:
[1] = insulin promoter down-regulators in MIN6 cells, imaging, high-content screening, mouse beta cells (AID 1628); format: functional
[2] = cytotoxicity in MIN6 insulinoma cells, dose response, cytotoxicity control, cell-based, mouse insulinoma (AID 2122); format: functional;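 further: confirmatory high-throughput counterscreen run to flag cytotoxic compounds; mouse MIN-6 beta cells carrying an insulin promoter eGFP reporter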
[3] = inhibitors of intracellular T. cruzi replication, confirmation, NIH3T3 host cells, beta-gal luminescence (AID 2044); format: functional, cell-based;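 further: intracellular parasites grown in NIH/3T3 mouse fibroblasts as host cells; luminescent beta-galactosidase reporter signal from transgenic T. cruzi replicating inside host cells; inhibitors lower the luminescence signal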
[4] = cytotoxicity toward NIH3T3 fibroblasts, dose response, counter-screen, cell-based, ATP luminescence, mouse fibroblasts (AID 2010); format: functional;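 further: cells exposed to compound for about 90 hours before reading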
[5] = Shn3 3'UTR reporter inhibitors, dose response, cell-based, Clone20 osteoblasts, firefly luciferase, cherry-picked (AID 624132); format: functional;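 further: firefly luciferase luminescence from reporter carrying the Shn3 3'UTR in osteoblasts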
[6] = HepG2 cell cytotoxicity, dose response, cytotoxicity control for Shn3 inhibitor project, CellTiter-Glo, cherry-picked (AID 624134); format: functional, cell-based
[7] = control 3'UTR Renilla luciferase suppression, dose response, counter-screen for Shn3 inhibitor project, cell-based, Clone20-Shn3RL, cherry-picked (AID 624133); format: functional
Vero [8] = test: cells; format: functional, cell-based; conditions: Chlorocebus sabaeus
[9] = test system: Streptococcus sp. 'group A'; test: growth inhibition of control SK(-) GAS strain, dose response, counter-screen for streptokinase expression inhibitor project, luminescence, kanamycin, BacTiterGlo, confirmation (AID 1900); format: functional, organism-based
Beta-galactosidase = Beta-galactosidase (Escherichia coli, UniProt Q8VNN2); test: PubChem AID 485352; format: functional
Chain of Beta-galactosidase (Q8VNN2 whole entry): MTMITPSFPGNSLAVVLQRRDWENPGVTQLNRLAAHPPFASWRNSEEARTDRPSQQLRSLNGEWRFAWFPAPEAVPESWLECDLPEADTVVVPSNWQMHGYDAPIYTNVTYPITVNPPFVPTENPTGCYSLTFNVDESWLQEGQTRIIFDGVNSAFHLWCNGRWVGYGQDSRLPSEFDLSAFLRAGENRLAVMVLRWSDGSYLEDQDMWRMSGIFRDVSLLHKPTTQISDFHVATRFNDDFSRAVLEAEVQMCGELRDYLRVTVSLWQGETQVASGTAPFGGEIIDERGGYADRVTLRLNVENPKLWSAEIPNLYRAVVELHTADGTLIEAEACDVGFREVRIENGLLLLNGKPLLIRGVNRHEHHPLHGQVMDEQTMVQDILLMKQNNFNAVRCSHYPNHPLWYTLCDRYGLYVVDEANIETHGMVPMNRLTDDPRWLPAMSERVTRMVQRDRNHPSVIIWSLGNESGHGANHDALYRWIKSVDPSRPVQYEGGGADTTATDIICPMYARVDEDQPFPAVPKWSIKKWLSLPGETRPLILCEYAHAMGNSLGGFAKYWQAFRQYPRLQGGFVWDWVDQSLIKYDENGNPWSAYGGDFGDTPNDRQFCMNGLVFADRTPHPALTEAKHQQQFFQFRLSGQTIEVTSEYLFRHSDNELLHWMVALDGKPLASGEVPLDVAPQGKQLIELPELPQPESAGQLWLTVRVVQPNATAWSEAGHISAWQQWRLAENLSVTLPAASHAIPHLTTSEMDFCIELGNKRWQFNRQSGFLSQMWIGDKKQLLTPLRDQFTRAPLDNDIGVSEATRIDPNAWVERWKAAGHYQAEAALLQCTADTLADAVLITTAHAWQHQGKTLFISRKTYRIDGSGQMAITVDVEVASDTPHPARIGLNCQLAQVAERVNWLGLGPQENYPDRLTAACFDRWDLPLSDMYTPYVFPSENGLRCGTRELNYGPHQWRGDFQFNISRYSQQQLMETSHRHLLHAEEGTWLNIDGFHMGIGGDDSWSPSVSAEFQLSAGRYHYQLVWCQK

Streptokinase A = target: T1, Streptokinase A (Streptococcus pyogenes serotype M1, UniProt P10520); test: S. pyogenes streptokinase expression inhibitors, potency, dose response, plasminogen activation absorbance, OD405 (AID 1914); format: functional, Streptococcus pyogenes M1 GAS;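 further: secreted streptokinase activity via plasminogen activation per viability signal from cell pellet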
T1 sequence (P10520 whole entry): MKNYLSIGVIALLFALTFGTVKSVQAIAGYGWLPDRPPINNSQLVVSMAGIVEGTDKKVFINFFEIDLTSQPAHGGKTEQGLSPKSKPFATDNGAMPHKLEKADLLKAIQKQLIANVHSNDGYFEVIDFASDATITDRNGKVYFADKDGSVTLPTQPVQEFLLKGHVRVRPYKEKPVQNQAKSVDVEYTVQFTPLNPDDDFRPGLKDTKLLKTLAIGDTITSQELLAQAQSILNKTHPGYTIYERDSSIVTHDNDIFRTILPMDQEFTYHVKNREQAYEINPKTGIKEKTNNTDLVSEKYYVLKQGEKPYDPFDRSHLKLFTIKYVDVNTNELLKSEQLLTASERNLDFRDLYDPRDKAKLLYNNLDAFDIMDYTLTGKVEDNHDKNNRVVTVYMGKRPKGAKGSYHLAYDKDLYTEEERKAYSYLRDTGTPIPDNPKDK

[10] = target: T2, Type-1 angiotensin II receptor (Homo sapiens, UniProt P30556); test: AT1 receptor antagonists, dose response, selectivity assay for APJ receptor antagonist project, cell-based, uHTS hits (AID 463214); format: functional;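 further: antagonist potency against angiotensin II stimulated AT1 response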
T2 sequence (P30556 whole entry): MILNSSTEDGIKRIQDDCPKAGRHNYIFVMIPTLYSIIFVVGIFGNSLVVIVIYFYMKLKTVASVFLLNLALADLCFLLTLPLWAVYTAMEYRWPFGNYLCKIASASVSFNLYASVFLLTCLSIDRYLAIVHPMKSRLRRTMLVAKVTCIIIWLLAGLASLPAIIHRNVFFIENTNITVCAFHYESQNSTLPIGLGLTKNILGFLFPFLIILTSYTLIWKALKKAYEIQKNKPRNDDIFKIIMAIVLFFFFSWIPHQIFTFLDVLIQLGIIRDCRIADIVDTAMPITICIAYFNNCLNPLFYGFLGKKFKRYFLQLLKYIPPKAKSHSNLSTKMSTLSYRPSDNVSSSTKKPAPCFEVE

Streptococcus = test: Group A Streptococcus viability loss, dose response, counter-screen for streptokinase expression inhibitor project, luminescence, BacTiterGlo (AID 1915); format: functional, organism-based;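 further: potency for reduction of bacterial viability or growth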
[11] = target: Glucose-6-phosphate 1-dehydrogenase (Homo sapiens, UniProt P11413); test: human G6PD enzyme inhibitors, dose response, selectivity assay for P. falciparum G6PD inhibitor project, biochemical, fluorescence (AID 504792); format: functional
Chain of Glucose-6-phosphate 1-dehydrogenase (P11413 whole entry): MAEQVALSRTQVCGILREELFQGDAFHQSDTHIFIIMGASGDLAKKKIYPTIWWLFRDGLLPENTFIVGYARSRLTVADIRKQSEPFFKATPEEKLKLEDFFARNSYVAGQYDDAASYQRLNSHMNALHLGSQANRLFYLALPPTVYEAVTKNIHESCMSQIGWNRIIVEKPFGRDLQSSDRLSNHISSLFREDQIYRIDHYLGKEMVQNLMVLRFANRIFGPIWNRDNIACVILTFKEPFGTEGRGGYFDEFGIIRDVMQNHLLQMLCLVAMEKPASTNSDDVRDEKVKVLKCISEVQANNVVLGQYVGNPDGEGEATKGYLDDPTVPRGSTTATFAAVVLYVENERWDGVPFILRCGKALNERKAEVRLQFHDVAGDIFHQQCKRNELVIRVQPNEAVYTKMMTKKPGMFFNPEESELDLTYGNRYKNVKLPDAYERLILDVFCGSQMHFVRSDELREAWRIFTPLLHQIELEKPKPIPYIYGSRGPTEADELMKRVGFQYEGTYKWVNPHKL

Vero [12] = test: Vero cell cytotoxicity, cytotoxicity control for flavivirus capping enzyme inhibitors (AID 588742); format: functional; conditions: Chlorocebus sabaeus
Genome polyprotein = Genome polyprotein (dengue virus type 2, UniProt P29990); test: Dengue-2 NS5 methyltransferase inhibitors, primary screen, biochemical, confirmation dose response (AID 588689); format: functional
Chain of Genome polyprotein (P29990 2492-3391 limits assumed): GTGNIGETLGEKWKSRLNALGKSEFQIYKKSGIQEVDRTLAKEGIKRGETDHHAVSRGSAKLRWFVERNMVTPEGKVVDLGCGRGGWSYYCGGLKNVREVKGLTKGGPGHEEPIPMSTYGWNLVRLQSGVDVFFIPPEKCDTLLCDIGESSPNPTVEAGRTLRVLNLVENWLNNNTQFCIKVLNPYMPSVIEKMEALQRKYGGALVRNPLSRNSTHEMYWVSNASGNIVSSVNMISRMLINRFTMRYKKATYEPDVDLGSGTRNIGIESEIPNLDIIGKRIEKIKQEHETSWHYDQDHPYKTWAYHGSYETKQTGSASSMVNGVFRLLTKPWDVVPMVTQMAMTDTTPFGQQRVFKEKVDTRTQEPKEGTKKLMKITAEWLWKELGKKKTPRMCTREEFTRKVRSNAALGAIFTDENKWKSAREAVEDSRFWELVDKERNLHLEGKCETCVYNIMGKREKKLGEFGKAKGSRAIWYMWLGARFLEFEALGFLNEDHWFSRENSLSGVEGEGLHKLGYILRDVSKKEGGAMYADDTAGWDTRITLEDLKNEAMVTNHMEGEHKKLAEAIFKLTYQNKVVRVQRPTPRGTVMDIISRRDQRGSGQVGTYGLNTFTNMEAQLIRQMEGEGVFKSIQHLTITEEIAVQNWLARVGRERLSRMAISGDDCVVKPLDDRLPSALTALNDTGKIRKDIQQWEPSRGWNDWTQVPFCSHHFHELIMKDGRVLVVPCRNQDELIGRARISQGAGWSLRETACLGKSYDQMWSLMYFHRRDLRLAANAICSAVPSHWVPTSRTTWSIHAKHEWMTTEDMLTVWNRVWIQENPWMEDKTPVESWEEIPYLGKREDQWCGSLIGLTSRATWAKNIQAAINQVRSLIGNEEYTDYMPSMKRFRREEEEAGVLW

Fatty acid synthase [13] = target: T3, Fatty acid synthase (Homo sapiens, UniProt P49327); test: FAS thioesterase domain inhibitors, dose response, biochemical, endpoint fluorescence intensity, uHTS hits (AID 624327); format: functional;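 further: fluorescence from hydrolysis of an O-methyl fluorescein acyl ester substrate by the enzyme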
T3 sequence (P49327 whole entry, the tested form may be a part): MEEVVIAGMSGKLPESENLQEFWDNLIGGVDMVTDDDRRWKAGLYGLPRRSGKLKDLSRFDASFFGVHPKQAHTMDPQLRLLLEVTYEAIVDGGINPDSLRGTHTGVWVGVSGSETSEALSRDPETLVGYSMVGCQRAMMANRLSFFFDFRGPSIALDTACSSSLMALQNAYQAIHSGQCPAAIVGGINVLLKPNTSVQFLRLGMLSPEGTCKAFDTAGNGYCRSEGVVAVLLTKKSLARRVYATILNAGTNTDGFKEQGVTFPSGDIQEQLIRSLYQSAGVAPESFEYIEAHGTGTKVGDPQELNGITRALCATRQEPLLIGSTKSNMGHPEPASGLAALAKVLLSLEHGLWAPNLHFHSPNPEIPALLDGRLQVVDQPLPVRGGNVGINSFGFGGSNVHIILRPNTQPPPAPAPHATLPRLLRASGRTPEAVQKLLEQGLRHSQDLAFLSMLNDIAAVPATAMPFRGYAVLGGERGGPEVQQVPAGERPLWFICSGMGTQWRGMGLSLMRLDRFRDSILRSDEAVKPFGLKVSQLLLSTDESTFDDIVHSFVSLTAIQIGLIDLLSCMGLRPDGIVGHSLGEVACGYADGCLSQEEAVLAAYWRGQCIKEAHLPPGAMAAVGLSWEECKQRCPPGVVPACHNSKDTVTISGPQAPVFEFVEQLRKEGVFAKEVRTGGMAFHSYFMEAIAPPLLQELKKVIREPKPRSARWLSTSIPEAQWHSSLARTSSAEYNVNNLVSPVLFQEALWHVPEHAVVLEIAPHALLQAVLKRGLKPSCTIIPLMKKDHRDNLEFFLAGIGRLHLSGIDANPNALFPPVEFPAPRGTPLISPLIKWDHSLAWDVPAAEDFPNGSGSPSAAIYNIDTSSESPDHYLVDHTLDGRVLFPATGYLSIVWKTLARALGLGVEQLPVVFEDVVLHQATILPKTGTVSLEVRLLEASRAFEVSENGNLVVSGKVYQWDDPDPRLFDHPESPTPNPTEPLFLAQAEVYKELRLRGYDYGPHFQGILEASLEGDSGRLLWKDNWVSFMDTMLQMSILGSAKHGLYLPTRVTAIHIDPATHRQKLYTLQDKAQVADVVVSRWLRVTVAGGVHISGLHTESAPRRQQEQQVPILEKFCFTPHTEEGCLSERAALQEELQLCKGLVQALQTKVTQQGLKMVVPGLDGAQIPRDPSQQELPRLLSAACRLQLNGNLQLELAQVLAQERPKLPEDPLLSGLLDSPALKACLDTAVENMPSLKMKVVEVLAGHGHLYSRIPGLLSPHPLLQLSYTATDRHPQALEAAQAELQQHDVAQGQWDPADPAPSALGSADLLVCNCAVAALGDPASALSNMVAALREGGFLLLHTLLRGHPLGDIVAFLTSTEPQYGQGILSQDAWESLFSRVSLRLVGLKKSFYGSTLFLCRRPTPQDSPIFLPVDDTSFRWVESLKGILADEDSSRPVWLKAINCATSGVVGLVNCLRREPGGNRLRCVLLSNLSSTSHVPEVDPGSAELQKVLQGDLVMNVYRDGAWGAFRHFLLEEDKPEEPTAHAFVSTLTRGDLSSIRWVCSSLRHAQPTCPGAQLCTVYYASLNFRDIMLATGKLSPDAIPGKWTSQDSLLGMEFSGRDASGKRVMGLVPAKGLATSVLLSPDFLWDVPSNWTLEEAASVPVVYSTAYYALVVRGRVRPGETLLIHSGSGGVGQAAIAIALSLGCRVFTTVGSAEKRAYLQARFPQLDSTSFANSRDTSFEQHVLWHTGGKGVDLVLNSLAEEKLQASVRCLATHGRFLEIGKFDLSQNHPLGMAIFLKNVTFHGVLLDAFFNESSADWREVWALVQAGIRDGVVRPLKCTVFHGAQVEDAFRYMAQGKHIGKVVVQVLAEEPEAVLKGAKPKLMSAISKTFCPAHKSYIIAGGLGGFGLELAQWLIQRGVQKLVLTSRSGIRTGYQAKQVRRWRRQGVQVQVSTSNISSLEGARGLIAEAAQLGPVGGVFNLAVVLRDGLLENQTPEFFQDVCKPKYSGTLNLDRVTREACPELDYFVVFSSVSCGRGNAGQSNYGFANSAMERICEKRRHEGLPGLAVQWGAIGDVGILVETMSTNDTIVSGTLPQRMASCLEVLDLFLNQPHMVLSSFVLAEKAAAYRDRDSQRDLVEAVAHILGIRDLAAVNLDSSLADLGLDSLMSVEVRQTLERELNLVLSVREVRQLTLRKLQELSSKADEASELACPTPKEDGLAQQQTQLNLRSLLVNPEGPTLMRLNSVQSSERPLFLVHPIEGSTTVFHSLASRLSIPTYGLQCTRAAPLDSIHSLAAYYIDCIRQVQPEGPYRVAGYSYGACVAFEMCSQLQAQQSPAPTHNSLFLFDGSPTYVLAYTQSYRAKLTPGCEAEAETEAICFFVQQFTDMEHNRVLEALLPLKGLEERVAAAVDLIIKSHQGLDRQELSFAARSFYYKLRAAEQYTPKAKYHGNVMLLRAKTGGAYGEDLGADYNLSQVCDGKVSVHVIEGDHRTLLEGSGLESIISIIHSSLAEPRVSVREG

Fatty acid synthase [14] = target: T3, Fatty acid synthase; test: FAS thioesterase domain inhibitors, dose response, biochemical, kinetic fluorescence intensity (AID 624326); format: functional;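 further: rate of fluorescence rise from hydrolysis of a fluorogenic O-methyl fluorescein ester substrate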
Vero [15] = test: host cell cytotoxicity of antiviral hits, dose response, cytotoxicity control for West Nile virus antiviral project, secondary assay (AID 1650); format: functional; conditions: Chlorocebus sabaeus
[16] = Luminescence Cell-Based Dose Retest to Confirm Inhibitors of Cancer Stem Cells. [Related pubchem assays (depositor defined):AID2717, AID2721]; format: functional; conditions: Homo sapiens

SMILES: CC(C)(C)c1ccc(CN(Cc2ccccc2)C(c2ccccn2)c2nnnn2C(C)(C)C)cc1 (configuration not stated)
- IC50 [1]: 3.07 µM (active)
- IC50 [2]: 3.84 µM (active)
- EC50 [3]: 1.76 µM (active)
- EC50 [4]: > 60 µM (not active)
- AC50 [5]: 13.5 µM (active)
- AC50 [6]: 67.9 µM (active)
- AC50 [7]: 24.2 µM (active)

SMILES: CC(C)(C)c1ccc(C(=O)NC(=S)Nc2sc3c(c2C#N)CCC3)cc1
- IC50 (Vero [8]): > 25 µM (active)

SMILES: CC(=O)OCCCNc1cc(Sc2nc3ccccc3s2)c2nonc2c1[N+](=O)[O-]
- EC50 [9]: 3.26 µM (active)
- EC50 (Beta-galactosidase): > 40 µM (inactive)
- EC50 (Streptokinase A): > 150 µM (not active)
- EC50 [3]: 1.38 µM (active)
- IC50 [10]: 2.06 µM (active)
- EC50 [4]: 4.76 µM (active)
- EC50 (Streptococcus): 3.7 µM (active)
- IC50 [11]: > 80 µM (inactive)
- CC50 (Vero [12]): 16.8 µM (active)
- IC50 (Genome polyprotein): > 100 µM (active)
- AC50 [5]: 4.7 µM (active)
- AC50 [6]: 24.4 µM (active)
- AC50 [7]: 11.3 µM (active)
- IC50 (Fatty acid synthase [13]): 2.08 µM (active)
- IC50 (Fatty acid synthase [14]): 1.35 µM (active)

SMILES: CC(=O)[C@@]1(O)C(C)CC2C3C=C(C)C4=Cc5c(cnn5-c5ccccc5)C[C@]4(C)C3C(O)C[C@@]21C (some centres not stated)
- IC50 [1]: < 0.25 µM (active)
- EC50 [9]: 5.57 µM (active)
- IC50 [2]: > 16 µM (inactive)
- CC50 (Vero [15]): > 100 µM (active)
- EC50 (Streptokinase A): 2.97 µM (active)
- EC50 (Streptococcus): > 150 µM (not active)
- AC50 [16]: 1.15 µM (active)

SMILES: CCOC(=O)N1CCC(N(C(=O)Nc2ccc(Cl)c(Cl)c2)C(C)CC)CC1 (configuration not stated)
- IC50 [1]: 2.7 µM (active)
- IC50 [2]: 2.45 µM (active)
